# Source: US20080312333A1, “Agent for Preventing/Ameliorating Life Style-Related Diseases Containing Turmeric Essential Oil Component” (Kaneka Corporation, priority 2004, published 2008)
# Biological target: T1, PPARγ (Homo sapiens, UniProt P37231)
# T1 construct: GAL4 (yeast transcription factor, amino acids 1-147); expressed in transfected cells; host or cells: CV-1 cells (African green monkey kidney)
# T1 sequence (P37231 204-505): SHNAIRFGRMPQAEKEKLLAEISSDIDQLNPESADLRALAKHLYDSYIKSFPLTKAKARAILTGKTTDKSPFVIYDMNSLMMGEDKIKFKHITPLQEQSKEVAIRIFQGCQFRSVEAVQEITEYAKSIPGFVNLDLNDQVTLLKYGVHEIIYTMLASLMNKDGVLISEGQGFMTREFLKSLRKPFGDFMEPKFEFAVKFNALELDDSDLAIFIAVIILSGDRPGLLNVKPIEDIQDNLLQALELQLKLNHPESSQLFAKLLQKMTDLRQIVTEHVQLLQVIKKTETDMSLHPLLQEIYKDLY
# Assay: PPARγ ligand activity, GAL4-PPARγ ligand binding site luciferase reporter in CV-1 cells
# Format: cell-based
# Details: for PPARγ ligand activity: ratio to no treatment control (1.00), mean ± standard error, n = 3
# Method: CV-1 cells (male African green monkey kidney-derived cultured cells) were seeded onto a 96-well culture plate (6×10^3 cells/well) and cultured under conditions of 37° C. and 5% CO2 for 24 hours. The medium used was DMEM (Dulbecco's modified Eagle medium; GIBCO) supplemented with 10% FBS (fetal bovine serum), 10 ml/L of a solution of penicillin and streptomycin (5,000 IU/ml and 5,000 μg/ml, respectively; GIBCO) and 37 mg/L of ascorbic acid (Wako Pure Chemical Industries, Ltd.). […] Each sample was dissolved in dimethyl sulfoxide (DMSO) and the solution, or DMSO used in a no treatment control group, was added to the medium to each concentration given in Table 4. Cells were washed with phosphate-buffered saline (PBS+) containing Ca and Mg, then luclite (PerkinElmer), a luciferase chemiluminescence reagent, was added, and the luciferase-due chemiluminescence intensity was measured using a TopCount microplate scintillation/luminescence counter (PerkinElmer).
compound,measurement,setting,value
CC(C)=CC(=O)C[C@H](C)c1ccc(C)cc1 [ar-turmerone],PPARγ ligand activity,addition level 2 μg/ml,1.51 ± 0.14
same,PPARγ ligand activity,addition level 5 μg/ml,2.33 ± 0.59
same,PPARγ ligand activity (in words),summary of Table 4,found to have PPARγ ligand activity
